In patent US20110288154A1, “RNA Interference Mediated Inhibition of Epithelial Sodium Channel (ENaC) Gene Expression Using Short Interfering Nucleic Acid (siNA)” (MERCK & CO., INC., priority 2008, published 2011):
[invAb] = inverted abasic unit; m = 2'-O-methyl; r = 2'-OH (RNA); f = 2'-fluoro

How the values were obtained:
mSCNN1A mRNA = experiment: Screening of ENaCα siNAs in mouse NIH 3T3 cells (quantitative RT-PCR); type: cell-based; set-up: Percent Reduction of the mSCNN1A mRNA relative to a non-targeting control siNA / Mouse % KD (efficacy of ENaCα mRNA knockdown): concentration or dose not given beside the values; conditions: for Mean (mSCNN1A expression normalized to the level of m36B4) / Percent Reduction of the mSCNN1A mRNA relative to a non-targeting control siNA / Avg ENaCα Expression (mSCNN1A) / Avg 36B4 Expression: mouse NIH 3T3 cells, n = 3; for Mean (mSCNN1A expression normalized to the level of m36B4) / Percent Reduction of the mSCNN1A mRNA relative to a non-targeting control siNA / Avg 36B4 Expression: 24 hours post-transfection; for Avg ENaCα Expression (mSCNN1A): harvested 24 hours post-transfection; for Avg 36B4 Expression: housekeeping gene used for normalisation
Description: siNA constructs (Table 1b) may be tested for efficacy in reducing ENaC RNA expression in, for example, A549 human lung carcinoma cells. A549 (human; ATCC cat# CCL-185) cells were cultured at 37° C. in the presence of 5% CO2 and grown in Ham's F12K medium with 2 mM L-glutamine adjusted to contain 1.5 g/L sodium bicarbonate and supplemented with fetal bovine serum at a final concentration of 10% and 100 U/mL penicillin. The A549 cells were plated approximately 24 hours before transfection in 96-well plates at 7,500 cells/well, 100 μl/well. After 24 hours complexes containing siNA and Lipofectamine 2000 (Invitrogen) were created as follows: a solution of Lipofectamine 2000 in OPTI-MEM was prepared containing Lipofectamine 2000 at a final concentration of 14 μg/ml. In parallel, solutions of the siNAs were prepared in OPTI-MEM at a final concentration of 150 nM. After both solutions were incubated at 20° C. for 20 minutes an equal volume of the siNA solutions and the Lipofectamine 2000 solution were added together for each of the siNAs. The resultant solution has the siNAs at a final concentration of 75 nM and Lipofectamine 2000 at a final concentration of 7 μg/ml. This solution was incubated at 20° C. for 20 minutes. After incubation 50 μl of the solution were added to each of the wells (in triplicate). The final concentration of siNA in each well was 25 nM and the final concentration of Lipofectamine 2000 in each well was 2.33 μg/ml. The plates were incubated for 48 hours with no change of media before harvesting. Dose response curves were determined in a similar manner with each concentration being done in triplicate and maintaining a constant amount of Lipofectamine 2000 in each transfection.
(§1) A series of probes and primers were used to detect the various mRNA transcripts of the genes of ENaCa and GAPDH in mouse, rat, and human cell lines. The assays were performed on an ABI 7500 instrument, according to the manufacturer's instructions. Within each experiment, the baseline was set in the exponential phase of the amplification curve, and based on the intersection point of the baselines with the amplification curve, a Ct value was assigned by the instrument. This Ct value was then assigned a QTY value based on the Standard Curve. The standard curve in the various experiments herein used 1 ng to 300 ng of RNA extracted from the same cell line used for the experimental transfections.
(§2) All IC50 values were calculated from the data using GraphPad Prizm software, specifically a sigmoidal, variable slope curve for simple ligand binding. Also, unless otherwise indicated, all calculations of the efficacy and potency (e.g., % knockdown) of the siNAs were done relative to a non-targeting control siNA. If reported, P-values were computed using The Students t-test, including the Welch Correction for unequal variances.
(§3) In all of the calculations of the % knock-down of mRNA, the calculation was made relative to the normalized level of expression of the gene of interest in the samples treated with the non-targeting control (NTC) unless otherwise indicated. The gene of interest expression level was divided by the level of expression of GAPDH or 36B4 (depending on the species) in each sample. The three replicates for each condition in each experiment were averaged and the standard deviation of those samples was calculated. The following formula was then used to calculate the % of knock-down of the gene of interest:
(§4) The ENaCα siNAs were designed and synthesized as described previously. The siNAs were screened in three cell lines. Human A549 cells, mouse NIH 3T3 and Rat H-4-II-E cells. The data from the screen of ENaCa siNAs in all three species is shown in Tables 3a, 3b, 4a, 4b, 5a, and 5b and a summary of the data for certain siNA molecules is presented in Table 6. Each screen was performed at 24 hrs. The decision to use this time point was based upon the degree of knockdown of the mRNA seen at that time point.

rSCNN1A (r ENaCα) mRNA = experiment: Screening of ENaCα siNAs in Rat H-4-II-E cells (quantitative RT-PCR); type: cell-based; set-up: Percent Reduction of the r ENaCα mRNA relative to a non-targeting control siNA (NTCs) / Rat % KD (efficacy of ENaCα mRNA knockdown): concentration or dose not given beside the values; conditions: for Mean (rSCNN1A expression normalized to the level of rGAPDH) / Percent Reduction of the r ENaCα mRNA relative to a non-targeting control siNA (NTCs) / Avg ENaCα Expression (rSCNN1A) / Avg GAPDH Expression (rGAPDH): Rat H-4-II-E cells, n = 3; for Mean (rSCNN1A expression normalized to the level of rGAPDH) / Percent Reduction of the r ENaCα mRNA relative to a non-targeting control siNA (NTCs) / Avg GAPDH Expression (rGAPDH): 24 hours post-transfection; for Avg ENaCα Expression (rSCNN1A): harvested 24 hours post-transfection; for Avg GAPDH Expression (rGAPDH): housekeeping gene used for normalisation
Description: as §1, §2, §3, §4

| Substance | Mean (mSCNN1A expression normalized to the level of m36B4) (mSCNN1A mRNA) | Percent Reduction of the mSCNN1A mRNA relative to a non-targeting control siNA (mSCNN1A mRNA) | Avg ENaCα Expression (mSCNN1A) (mSCNN1A mRNA) | Avg 36B4 Expression (mSCNN1A mRNA) | Mean (rSCNN1A expression normalized to the level of rGAPDH) (rSCNN1A (r ENaCα) mRNA) | Percent Reduction of the r ENaCα mRNA relative to a non-targeting control siNA (NTCs) (rSCNN1A (r ENaCα) mRNA) | Avg ENaCα Expression (rSCNN1A) (rSCNN1A (r ENaCα) mRNA) | Avg GAPDH Expression (rGAPDH) (rSCNN1A (r ENaCα) mRNA) | IC50 (mSCNN1A mRNA; mouse cell line, dose response, read-out: Mouse IC50 (potency of ENaCα mRNA knockdown)) | Mouse % KD (efficacy of ENaCα mRNA knockdown) (mSCNN1A mRNA; mouse cell line, summary) | IC50 (rSCNN1A (r ENaCα) mRNA; rat cell line, dose response, read-out: Rat IC50 (potency of ENaCα mRNA knockdown)) | Rat % KD (efficacy of ENaCα mRNA knockdown) (rSCNN1A (r ENaCα) mRNA; rat cell line, summary) |
| --- | --- | --- | --- | --- | --- | --- | --- | --- | --- | --- | --- | --- |
| B AGccAGuGGAGccuGuGGu TTB / ACCAcAGGcuccAcuGGcuUU (sense AGCCAGUGGAGCCUGUGGUTT; antisense ACCACAGGCUCCACUGGCUUU; siRNA; sense: DNA at AGT, 2'-fluoro at CU, [invAb] at 5' end, 3' end, backbone not given here; antisense: sugars from the 5' end rrrmfmmmffffmffmmffmm, backbone not given here) [Site 1756] | 0.12 | 13.5% | 2.58 | 21.66 | 0.57 | 38.3% | 23.08 | 40.27 | – | – | – | – |
| B GuccAAccuGGGcAGccAG TTB / CUGGcuGcccAGGuuGGAcUU (sense GUCCAACCUGGGCAGCCAGTT; antisense CUGGCUGCCCAGGUUGGACUU; siRNA; sense: DNA at AGT, 2'-fluoro at CU, [invAb] at 5' end, 3' end, backbone not given here; antisense: sugars from the 5' end rmmmffmfffmmmffmmmfmm, backbone not given here) [Site 1743] | 0.13 | 6.7% | 2.87 | 22.47 | 0.52 | 43.9% | 22.13 | 42.82 | – | – | – | – |
| B cuccuGuccAAccuGGGcA TTB / UGCccAGGuuGGAcAGGAGUU (sense CUCCUGUCCAACCUGGGCATT; antisense UGCCCAGGUUGGACAGGAGUU; siRNA; sense: DNA at AGT, 2'-fluoro at CU, [invAb] at 5' end, 3' end, backbone not given here; antisense: sugars from the 5' end rrrffmmmffmmmfmmmmmmm, backbone not given here) [Site 1738] | 0.13 | 5.1% | 2.63 | 20.59 | 0.63 | 31.1% | 21.90 | 35.43 | – | – | – | – |
| B uGuGcAAccAGAAcAAAuc TTB / GAUuuGuucuGGuuGcAcAUU (chain 1 UGUGCAACCAGAACAAAUCTT; chain 2 GAUUUGUUCUGGUUGCACAUU; siRNA; B caps on sense ends, letter-case modifications not given here, further chemistry not given here) [Site 782] | 0.05 | 78.2% | 0.85 | 16.72 | 0.47 | 63.7% | 13.71 | 29.23 | 3.9 nM | 78% | 0.8 nM | 63% |
